Data on five molecules can be found in US4515980A, “Substituted aminobenzoates, their preparation and use” (Sterling Drug Inc., priority 1983, dated 1985).

One experiment has as its target T1, lipoxygenase (Rattus norvegicus, UniProt P12527).
T1 construct: Single cell suspensions of RBL-1 cells are homogenized to obtain the microsomal fraction containing lipoxygenase and cyclooxygenase; endogenous in cells; host or cells: RBL-1 (rat basophilic leukemia) cells, homogenate / microsomal fraction
T1 sequence (P12527 1-673): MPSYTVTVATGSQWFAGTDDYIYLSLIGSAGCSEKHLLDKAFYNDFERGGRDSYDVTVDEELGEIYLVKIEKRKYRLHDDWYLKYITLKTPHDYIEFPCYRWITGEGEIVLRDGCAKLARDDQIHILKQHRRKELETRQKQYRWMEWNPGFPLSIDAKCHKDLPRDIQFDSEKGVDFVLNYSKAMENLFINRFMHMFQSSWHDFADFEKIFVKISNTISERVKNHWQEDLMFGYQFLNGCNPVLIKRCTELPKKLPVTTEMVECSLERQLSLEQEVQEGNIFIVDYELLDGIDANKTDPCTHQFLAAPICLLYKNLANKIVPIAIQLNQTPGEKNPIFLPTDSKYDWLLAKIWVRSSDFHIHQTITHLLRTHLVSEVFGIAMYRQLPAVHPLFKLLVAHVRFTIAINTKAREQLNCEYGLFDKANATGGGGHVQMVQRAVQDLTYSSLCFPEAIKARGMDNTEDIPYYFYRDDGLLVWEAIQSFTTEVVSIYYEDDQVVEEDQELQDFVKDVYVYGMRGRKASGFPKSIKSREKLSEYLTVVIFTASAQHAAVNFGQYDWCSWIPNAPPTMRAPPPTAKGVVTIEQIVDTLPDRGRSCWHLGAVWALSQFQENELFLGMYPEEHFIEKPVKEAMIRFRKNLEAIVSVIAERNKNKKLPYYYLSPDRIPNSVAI
Put plainly: Inhibition of lipoxygenase derived from rat basophilic leukemia (RBL-1) cells, formation of products 5,12-di-HETE (L1) and 5-HETE (L2). It counts as biochemical. How it is done:
(§1) The primary screening test used is a determination of the inhibition of lipoxygenase and cyclooxygenase derived from rat basophilic leukemia (RBL-1) cells. The test was carried out according to the following procedure:
(§2) Single cell suspensions of RBL-1 cells are homogenized to obtain the microsomal fraction containing lipoxygenase and cyclooxygenase. Test compounds are added to the enzyme-containing homogenate for a 5 min preincubation period at 37° C. prior to the addition of ^14 C-arachidonic acid substrate. Following incubation at 37° C. for 15 min, the reaction is stopped by the addition of 2M formic acid and the enzyme-substrate products are extracted into chloroform. An aliquot of the extract is evaporated to dryness, reconstituted in ether to 1/10 original volume, spotted on thin layer chromatography plates and chromatographed. The peak areas of radioactivity representing the products are located by scanning the plates. The quantity of products formed is estimated by measuring the height of the radioactivity peaks observed on the chromatographic scans. Alternatively, the areas of radioactivity are scraped from the plate and the ^14 C quantitated by scintillation counting.

The next experiment deals with T2, cyclooxygenase (Rattus norvegicus, UniProt Q63921).
T2 construct: Single cell suspensions of RBL-1 cells are homogenized to obtain the microsomal fraction containing lipoxygenase and cyclooxygenase; endogenous in cells; host or cells: RBL-1 (rat basophilic leukemia) cells, homogenate / microsomal fraction
T2 sequence (Q63921 27-602): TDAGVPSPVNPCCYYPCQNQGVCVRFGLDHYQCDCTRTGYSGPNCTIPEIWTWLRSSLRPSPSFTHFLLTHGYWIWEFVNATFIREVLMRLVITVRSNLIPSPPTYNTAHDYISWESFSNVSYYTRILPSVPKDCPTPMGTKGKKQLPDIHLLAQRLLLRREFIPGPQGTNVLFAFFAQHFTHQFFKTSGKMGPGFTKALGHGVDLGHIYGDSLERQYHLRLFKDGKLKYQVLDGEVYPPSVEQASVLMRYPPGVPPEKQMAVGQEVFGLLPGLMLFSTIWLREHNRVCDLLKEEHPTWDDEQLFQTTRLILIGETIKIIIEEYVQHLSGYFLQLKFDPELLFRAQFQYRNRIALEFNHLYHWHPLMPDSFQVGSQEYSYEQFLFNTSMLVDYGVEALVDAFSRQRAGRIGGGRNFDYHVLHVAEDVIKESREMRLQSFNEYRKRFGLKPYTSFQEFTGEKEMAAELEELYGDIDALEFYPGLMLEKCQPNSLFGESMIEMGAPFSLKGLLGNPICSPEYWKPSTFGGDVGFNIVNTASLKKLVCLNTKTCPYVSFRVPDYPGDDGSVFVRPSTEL
As to the kind of experiment: Inhibition of cyclooxygenase derived from rat basophilic leukemia (RBL-1) cells, formation of product PDG2 (C1). It counts as biochemical. The settings on record: RBL-1 homogenate; for inhibition at 1 µM: dose of 1 μM, 5 min preincubation, 15 min incubation at 37° C, read-out: In vitro % Inhibition, C1 (cyclooxygenase product formation); for pIC50: C1, PDG2. How it is done: as §1, §2

For experiment [1], the system named is STS-A component of immunologically induced bronchoconstriction. Put plainly: Effect on the STS-A component of immunologically induced bronchoconstriction in guinea pigs. It counts as in vivo. The following applies: 4 hrs., at 1 mg/kg orally, indomethacin + chlorpheniramine medicated, antigen challenge. The protocol:
The test was carried out according to the following procedure:
Two weeks after immunization with egg albumin, guinea pigs are prepared for bronchoconstriction determination. One hour prior to antigen challenge, each animal is dosed orally with indomethacin and chlorpheniramine. Animals are anesthetized with sodium pentobarbital, the trachea cannulated and the animal artifically respired. Arachidonic acid is administered intravenously prior to antigen challenge. The resulting bronchoconstriction is recorded by the standard lung overflow procedure and the peak increase in intratracheal pressure (mm Hg) over a 10 minute observation period is recorded. Compounds are evaluated for their ability to prevent the increased intratracheal pressure in an experimental group of animals as compared to the medicated (indomethacin+chlorpheniramine+arachidonic acid) control group. The results are expressed in terms of percent inhibition or as ED50 values (efffective dose in 50% of the animals).

The mark [2] stands for this setting: IC50, L1 (lipoxygenase product 5,12-di-HETE formation), L1, 5,12-di-HETE, RBL-1 homogenate.
Setting [3] is: IC50, L2 (lipoxygenase product 5-HETE formation), L2, 5-HETE, RBL-1 homogenate.
Setting [4] is: read-out: In vitro % Inhibition, L1 (lipoxygenase product 5,12-di-HETE formation).
[5] abbreviates: read-out: In vitro % Inhibition, L2 (lipoxygenase product 5-HETE formation).

pIC50: −log10 of the molar value. Like-named read-outs stand apart in the source and are kept apart here.

Consider `CCOC(=O)c1ccccc1Nc1ccc(O)cc1C` [Example 4c, Ethyl 2-(4-hydroxy-2-methylphenylamino)benzoate], for which the inhibition at 1 µM amounted to 60% on lipoxygenase (L1, 5,12-di-HETE, dose of 1 μM, RBL-1 homogenate, 5 min preincubation, 15 min incubation at 37° C, read-out: In vitro % Inhibition, L1 (lipoxygenase product 5,12-di-HETE formation)); 76% on lipoxygenase (L2, 5-HETE, dose of 1 μM, RBL-1 homogenate, 5 min preincubation, 15 min incubation at 37° C, read-out: In vitro % Inhibition, L2 (lipoxygenase product 5-HETE formation)); 0% on cyclooxygenase.

Turning to `CCOC(=O)c1ccccc1Nc1ccccc1O` [Example 1d, Ethyl 2-(2-hydroxyphenylamino)benzoate], the results for the pIC50 at lipoxygenase (setting [2]), at lipoxygenase (setting [3]) and against cyclooxygenase were 6.80, 7.00 and 6.49, respectively. The inhibition at 1 µM at lipoxygenase (setting [4]) is 95%; at lipoxygenase (setting [5]), 98%; on cyclooxygenase, 34%.

With `CCOC(=O)c1cc(OC)ccc1Nc1ccc(O)cc1` [Example 3d, Ethyl 2-(4-hydroxyphenylamino)-5-methoxybenzoate], the pIC50 is 6.96 at lipoxygenase (setting [2]), 7.00 at lipoxygenase (setting [3]) and below 6.00 at cyclooxygenase. Besides, the inhibition at 1 µM on lipoxygenase (setting [4]) came out at 90%; at lipoxygenase (setting [5]), 91%; on cyclooxygenase, 18%. For the same molecule, the “In vivo Guinea Pig % inhib. (increased intratracheal pressure, bronchoconstriction)” value in experiment [1] is reported as 42%.

Consider `CCOC(=O)c1ccccc1Nc1ccc(O)c(Cl)c1` [Example 5c, Ethyl 2-(3-chloro-4-hydroxyphenylamino)benzoate], for which the values for the pIC50 at lipoxygenase (setting [2]), on lipoxygenase (setting [3]) and on cyclooxygenase were 6.17, 6.52 and below 6.00, respectively. In addition, the inhibition at 1 µM at lipoxygenase (setting [4]) is 90%; on lipoxygenase (setting [5]) it was 99%; on cyclooxygenase it was 26%.

As to `CCOC(=O)c1ccccc1Nc1ccc(O)cc1` [Example 2b, Ethyl 2-(4-hydroxyphenylamino)benzoate], the values for the pIC50 on lipoxygenase (setting [2]), at lipoxygenase (setting [3]) and at cyclooxygenase were 6.47, 6.60 and below 6.00, respectively. Moreover, the inhibition at 1 µM turned out to be 77% at lipoxygenase (setting [4]), 93% on lipoxygenase (setting [5]) and 19% on cyclooxygenase. The “In vivo Guinea Pig % inhib. (increased intratracheal pressure, bronchoconstriction)” value in experiment [1] is given as 38%.
